Experimental data published in PMC9127493 (Signal Transduction and Targeted Therapy, 2022).
Read-outs that look alike come from different tables or passages of the source.

Tests used:
[1] = Antiproliferation (MTS) assay, cytotoxicity; format: cell-based; conditions: African green monkey, Vero E6 cells
Method: (§1) Cell viability was determined using MTS (Promega, Madison, WI, USA), according to the manufacturer’ s instructions. The absorbance was measured in Varioskan Flash (Thermo) at 490 nm. Data were normalized to the control group (DMSO). CC50 values were calculated by concentration-response curve-fitting using GraphPad Prism.

SARS-CoV-2 [2] = test: Cytopathic effect (CPE) inhibition assay in Vero E6 cells; format: cell-based; conditions: wild-type SARS-CoV-2, MOI = 0.1, 48 h
SARS-CoV-2 [3] = test: Time-of-addition experiment; format: cell-based; conditions: Vero E6 cells, qRT-PCR at 24 h p.i. and nucleoprotein Western blot
Method: Time-of-addition experiment
Vero E6 cells were plated into 6-well plates and grew overnight. During “Full-time” treatment, cells were first treated with drug for two hours, and then infected with the virus for two hours. After that, the mixed supernatant was removed and cells were washed twice with PBS and finally cultured in fresh medium containing the same concentration of drug. For “Entry” treatment, pre-treatment and infection operations were similar to that in “Full-time” treatment. However, cells were cultured in drug-free medium after the mixed supernatant removed. As for “Post-entry” treatment, cells were infected with virus for 2 h before treated with drug for 2 h. Then the mixture was removed and fresh medium containing drug was added after cells were washed with PBS. The DMSO-control group was treated in the same way as “Full-time” group. For quantitative PCR, the MOI was controlled at 0.05 and supernatant was harvest at 24 h post infection. While for western blot, MOI was controlled at 0.30 and cells were harvest at 72 h post infection to identify the virus protein expression.

PIKfyve = target: T1, PIKfyve (Homo sapiens, UniProt Q9Y2I7); test: KINOMEscan competitive binding assay, Kds determination
T1 construct: purchased Eurofins DiscoverX Corporation (KINOMEscan service); host or cells: HEK-293
T1 sequence (Q9Y2I7 whole entry): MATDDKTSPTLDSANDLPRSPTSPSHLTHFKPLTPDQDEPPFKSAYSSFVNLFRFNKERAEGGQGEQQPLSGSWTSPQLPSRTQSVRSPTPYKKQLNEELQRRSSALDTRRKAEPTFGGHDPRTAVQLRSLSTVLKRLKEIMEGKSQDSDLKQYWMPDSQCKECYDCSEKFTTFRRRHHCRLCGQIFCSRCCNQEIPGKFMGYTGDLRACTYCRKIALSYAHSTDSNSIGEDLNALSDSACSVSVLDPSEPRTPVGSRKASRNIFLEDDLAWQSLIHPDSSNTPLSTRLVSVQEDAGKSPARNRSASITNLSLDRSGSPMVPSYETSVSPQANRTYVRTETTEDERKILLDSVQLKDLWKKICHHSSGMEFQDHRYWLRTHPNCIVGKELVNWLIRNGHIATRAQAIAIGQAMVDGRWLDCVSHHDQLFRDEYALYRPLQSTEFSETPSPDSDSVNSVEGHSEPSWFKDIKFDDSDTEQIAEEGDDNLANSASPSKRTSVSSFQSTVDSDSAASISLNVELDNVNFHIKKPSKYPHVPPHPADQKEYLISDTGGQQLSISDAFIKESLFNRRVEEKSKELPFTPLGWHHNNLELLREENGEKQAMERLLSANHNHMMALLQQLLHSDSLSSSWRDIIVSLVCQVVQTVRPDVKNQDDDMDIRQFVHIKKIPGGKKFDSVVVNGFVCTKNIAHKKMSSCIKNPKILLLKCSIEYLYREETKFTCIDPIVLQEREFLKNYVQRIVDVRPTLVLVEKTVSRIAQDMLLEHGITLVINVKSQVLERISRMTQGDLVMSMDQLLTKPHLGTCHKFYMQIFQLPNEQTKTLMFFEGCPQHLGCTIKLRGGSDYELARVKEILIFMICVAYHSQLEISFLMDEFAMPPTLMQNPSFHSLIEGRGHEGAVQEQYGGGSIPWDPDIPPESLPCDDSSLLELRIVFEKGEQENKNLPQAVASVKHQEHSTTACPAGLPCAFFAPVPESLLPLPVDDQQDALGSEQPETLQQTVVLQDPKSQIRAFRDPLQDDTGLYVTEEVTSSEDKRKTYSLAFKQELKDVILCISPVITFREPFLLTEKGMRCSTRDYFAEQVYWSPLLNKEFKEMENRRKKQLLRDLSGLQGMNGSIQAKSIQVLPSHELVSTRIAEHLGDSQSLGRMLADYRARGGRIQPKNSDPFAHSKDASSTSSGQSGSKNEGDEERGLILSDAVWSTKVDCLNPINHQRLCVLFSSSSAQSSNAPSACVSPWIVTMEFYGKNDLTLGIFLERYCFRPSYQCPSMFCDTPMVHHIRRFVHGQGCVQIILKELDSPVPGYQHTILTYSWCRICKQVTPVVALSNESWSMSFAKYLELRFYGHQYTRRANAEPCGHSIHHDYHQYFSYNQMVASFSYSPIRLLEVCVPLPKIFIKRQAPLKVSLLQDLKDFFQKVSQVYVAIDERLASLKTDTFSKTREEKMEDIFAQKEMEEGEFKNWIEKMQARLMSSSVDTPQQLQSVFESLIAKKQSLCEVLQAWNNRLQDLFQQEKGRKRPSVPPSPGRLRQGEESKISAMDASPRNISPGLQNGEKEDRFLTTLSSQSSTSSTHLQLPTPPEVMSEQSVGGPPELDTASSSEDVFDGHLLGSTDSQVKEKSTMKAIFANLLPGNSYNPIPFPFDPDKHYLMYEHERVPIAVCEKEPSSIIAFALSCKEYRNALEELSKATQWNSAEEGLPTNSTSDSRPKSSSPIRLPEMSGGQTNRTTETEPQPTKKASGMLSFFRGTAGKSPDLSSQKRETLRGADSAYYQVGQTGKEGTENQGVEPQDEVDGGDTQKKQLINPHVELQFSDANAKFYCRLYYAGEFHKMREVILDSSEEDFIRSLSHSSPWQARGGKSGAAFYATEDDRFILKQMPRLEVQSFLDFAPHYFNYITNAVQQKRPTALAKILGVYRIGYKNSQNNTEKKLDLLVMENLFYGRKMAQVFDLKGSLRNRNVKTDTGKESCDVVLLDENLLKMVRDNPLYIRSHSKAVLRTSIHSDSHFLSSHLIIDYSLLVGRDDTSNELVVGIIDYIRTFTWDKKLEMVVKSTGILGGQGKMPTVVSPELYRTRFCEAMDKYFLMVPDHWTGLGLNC
From the text: KINOMEscan technology is a competitive affinity-based binding assay provided by Eurofins DiscoverX Corporation^3. Briefly, kinases were produced in HEK-293 cells and tagged with DNA for qPCR detection. Affinity resins were generated by treating streptavidin-coated magnetic beads with biotinylated small molecule ligands. For binding assays, the liganded beads were combined with DNA-tagged kinases and the test compounds. DMSO was used as a control. Compounds that bind to the DNA-tagged kinases will prevent these kinases binding with immobilized ligands and reduce the amount of the corresponding kinases captured on solid support. Kds were determined using 11 serial threefold dilutions of the test compounds and a DMSO control.
Supplementary Figure S1. The equilibrium dissociation constant (Kd) for XMU-MP-7 with PIKfyve was determined from 2 independent titration curves.

[4] = Pharmacokinetics after single intravenous and oral administration; format: in vivo; conditions: Sprague Dawley, plasma, rat; for MRT inf: read-out: MRT(0-∞)
Method: The pharmacokinetics of XMU-MP-7 were determined following single intravenous and oral administration in Sprague Dawley rat (N = 3/each) at the dose indicated. Blood samples were collected at 0.08, 0.25, 0.5, 1, 2, 4, 8 & 24 hr (IV) & 0.25, 0.5, 1, 2, 4, 6, 8 & 24 hr (PO) post dose. Then the samples were quantified by LC-MS/MS, and data analysis was conducted using WinNonlin V6.3. IV = intravenous injection, PO = oral delivery, Tmax = time of maximum plasma concentration, Cmax = maximum plasma concentration, AUC = area under the curve (measure of exposure), T1/2 = half life, Cl = plasma clearance, Vd = volume of distribution, F = oral bioavailability.

[5] = Cytotoxicity of drugs used in pseudovirus experiments (MTS); format: cell-based; conditions: human; 293T-hACE2 cells, MTS assay at 48 hours, n = 3
Method: as §1, with “Cells were seeded into 96-well plates and exposed to serially diluted drugs for 48 h. Cell” for “Cell”
293T-hACE2 cells were treated with serially diluted drugs and cytotoxicity was determined by MTS assay at 48 hours (n = 3).

293T-ACE2iRb3 cells = test: Visualization of SARS-CoV-2 cell entry with STG probe; format: cell-based, human; conditions: pretreated with 2 μM for 1 h, 3 h post STG incubation
Method: Visulization of SARS-CoV-2 cell entry
To visualize the effect of drugs on viral entry, 293T-ACE2iRb3 cells were pretreated with serially diluted drugs for 1 h before STG probes addition for further incubation. Cell images shown in Fig 1e were acquired using a 100× oil immersion objective. The data shown in Fig S3 was derived from images acquired on Opera Phenix using 40× water immersion objective. For images of Fig 1e, cells were gently washed twice with PBS after 3 h incubation with STG, following a paraformaldehyde fixation before imaging. Cell images involved in Fig S3 were obtained under wash-free and live-cell conditions. The construction of STG probe used here and the image quantitative analysis were performed as previously described^1.
All drugs were tested in a 3-fold dilution series and the initial drug concentration was 15 μM. Three and five replicate wells were performed for the DMSO and drug groups, respectively. 25 fields of each well were imaged for quantitative analyses after 3 h incubation with STG-probe.

cathepsin B = test: Cathepsin B activation, Western blot; format: cell-based, human; conditions: A549 cells, time- and dose-dependent
[6] = test system: SARS-CoV-2 wild-type isolate XM088T; test: Antiviral efficacy assay, qRT-PCR of virus released in supernatants; format: cell-based; conditions: MOI of 0.05, pretreated 2 h, qRT-PCR at 48 h p.i., n = 3
Vero E6 cells = test: Morphological observations, cytoplasmic vacuolization; format: cell-based, African green monkey; conditions: for induction of cytoplasmic vacuoles: Vero E6 cells, 5 μM, 8 h
Method: Morphological observations
Cells were seeded into 96-well plates and treated with test drugs for indicated time periods. Pictures of cells were subsequently obtained using Biotek Cytation-5&BioSpa8.

[7] = design: method as in PMID 31628917; conditions: patients with Crohn’s disease and rheumatoid arthritis; cited from earlier work
[8] = Severe acute respiratory syndrome coronavirus 2, Vero C1008, Vero E6 cells

| Structure (SMILES) | rescue of cytopathic effect (SARS-CoV-2 [2]) | stage of infection at which the drug acts (SARS-CoV-2 [3]) | Kd (PIKfyve) [µM] | CC50 at 48 h [5] [µM] | STG probe internalization (confocal images) (293T-ACE2iRb3 cells) | EC50 [6, 8] [µM] | time to visible cytoplasmic vacuoles (Vero E6 cells) | induction of cytoplasmic vacuoles (Vero E6 cells) | CC50 at 48 h ([1]; 48 h, n = 3) [µM] | other results |
| --- | --- | --- | --- | --- | --- | --- | --- | --- | --- | --- |
| COc1ccc(C(=O)Nc2cccc(C(F)(F)F)c2)cc1Nc1nc(-c2cccnc2)c2[nH]ccc2n1 [XMU-MP-7] | significantly rescued the cytopathic effects | potent antiviral roles at both entry and post-entry stages | 0.0064 | > 10 | almost completely trapped on the enlarged cytoplasmic vacuoles | 0.0093 | less than 20 min | dramatically induced cytoplasmic vacuoles | – | CC50 at 48 h [1]: > 150 µM; AUC(0-inf) ([4]; IV, 2 mg/kg): 4250 ng·h/mL; AUC(0-t) ([4]; IV, 2 mg/kg): 4250 ng·h/mL; C0 ([4]; IV, 2 mg/kg): 14000 ng/mL; Tmax ([4]; IV, 2 mg/kg): 0.08 h; Vd ([4]; IV, 2 mg/kg): 0.2 L/kg; clearance ([4]; IV, 2 mg/kg): 7.88 mL/min/kg; half-life ([4]; IV, 2 mg/kg): 0.608 h; MRT inf ([4]; IV, 2 mg/kg): 0.429 h; AUC(0-inf) ([4]; PO, 10 mg/kg): 2210 ng·h/mL; AUC(0-t) ([4]; PO, 10 mg/kg): 2200 ng·h/mL; Cmax ([4]; PO, 10 mg/kg): 429 ng/mL; Tmax ([4]; PO, 10 mg/kg): 2.33 h; half-life ([4]; PO, 10 mg/kg): 3.06 h; bioavailability ([4]; PO, 10 mg/kg, read-out: F (oral bioavailability)): 10.4%; MRT inf ([4]; PO, 10 mg/kg): 3.81 h; maturation of active cathepsin B (cathepsin B): impaired the maturation of active cathepsin B |
| Cc1ccc(NC(=O)c2cccc(C(F)(F)F)c2)cc1Nc1nc(-c2ccncc2)c2[nH]ccc2n1 [cmpd 24] | – | – | > 30 | > 10 | STG entered the cytoplasm | 12.3 | – | could not induce visible vacuoles | 51.7 | – |
| CC(C)(C)[C@H](NC(=O)C(F)(F)F)C(=O)N1C[C@H]2[C@@H]([C@H]1C(=O)N[C@H](C#N)C[C@@H]1CCNC1=O)C2(C)C [PF-07321332] | – | – | – | – | – | – | – | – | – | EC50 ([6]; Vero E6 cells, read-out: EC50): 0.487 µM |
| CCC(CC)COC(=O)[C@H](C)N[P@](=O)(OC[C@H]1O[C@@](C#N)(c2ccc3c(N)ncnn23)[C@H](O)[C@@H]1O)Oc1ccccc1 [Remdesivir] | – | only exerted an inhibitory effect at post-entry stage | – | – | STG entered the cytoplasm | 1.64 | – | – | > 150 | – |
| Cc1cccc(/C=N/Nc2cc(N3CCOCC3)nc(OCCc3ccccn3)n2)c1 [Apilimod] | significantly rescued the cytopathic effects | – | – | > 10 | almost completely trapped on the enlarged cytoplasmic vacuoles | < 0.0069 | less than 20 min | induced cytoplasmic vacuoles | 41.8 | bioavailability [7]: poor bioavailability; plasma concentration [7]: unexpected low plasma concentration |
| CCN(CC)CCCC(C)Nc1ccnc2cc(Cl)ccc12 (stereo not drawn) [Chloroquine] | – | – | – | – | – | 0.549 | – | – | 54.8 | EC50 ([6]; Vero E6 cells): ~0.5 µM |
